Laboratory results published in ChEMBL document CHEMBL1148288, “A new aliphatic amino prodrug system for the delivery of small molecules and proteins utilizing novel PEG derivatives” (J Med Chem, 2004).
Where a name gives a salt, the structure may show the parent alone.

What follows are compounds tested on P388 (assay: In vitro inhibitory activity against cancerous P388 cell line). Details: Mus musculus.
Format: functional, cell-based

SMILES	IC50
COCCOCCOC(=O)NCC(=O)OCCN(CCOC(=O)CNC(=O)OCCOCCOC)CC(=O)NC(=O)[C@@]1(O)Cc2c(O)c3c(c(O)c2[C@H](OC2CC(N)C(O)C(C)O2)C1)C(=O)c1c(OC)cccc1C3=O (stereo not given in full)	428 nM
COCCOCCOC(=O)NCCOCCOCC(=O)OCCN(CCOC(=O)COCCOCCNC(=O)OCCOCCOC)CC(=O)NC(=O)[C@@]1(O)Cc2c(O)c3c(c(O)c2[C@H](OC2CC(N)C(O)C(C)O2)C1)C(=O)c1c(OC)cccc1C3=O (stereo not given in full)	1100 nM
COCCOCCOC(=O)NC(C)C(=O)OCCN(CCOC(=O)C(C)NC(=O)OCCOCCOC)CC(=O)NC(=O)[C@@]1(O)Cc2c(O)c3c(c(O)c2[C@H](OC2CC(N)C(O)C(C)O2)C1)C(=O)c1c(OC)cccc1C3=O (stereo not given in full)	316 nM
COCCOCCOC(=O)NCCOCCOCCNC(=O)COCC(=O)OCCN(CCOC(=O)COCC(=O)NCCOCCOCCNC(=O)OCCOCCOC)CC(=O)NC(=O)[C@@]1(O)Cc2c(O)c3c(c(O)c2[C@H](OC2CC(N)C(O)C(C)O2)C1)C(=O)c1c(OC)cccc1C3=O (stereo not given in full)	455 nM
COc1cccc2c1C(=O)c1c(O)c3c(c(O)c1C2=O)C[C@@](O)(C(=O)CO)C[C@@H]3O[C@H]1C[C@H](N)[C@H](O)[C@H](C)O1 [DOXORUBICIN HYDROCHLORIDE]	17 nM
